ChEMBL document CHEMBL2016467, “Thiosemicarbazone fragment embedded within 1,2,4-triazole ring as inhibitors of Entamoeba histolytica” (Bioorg Med Chem Lett, 2012)
pIC50: −log10 of the molar value.

Experiments:
[1] = tested on: Entamoeba histolytica; experiment: Antiamoebic activity against Entamoeba histolytica HM-1:IMSS trophozoites after 72 hrs by microdilution method; format: functional, organism-based
[2] = Cytotoxicity against human MCF7 cells assessed as cell viability at 2.5 to 100 uM after 48 hrs by MTT assay; format: cell-based; settings: read-out: Activity
[3] = tested on: MCF7; experiment: Cytotoxicity against human MCF7 cells after 48 hrs by MTT assay; format: cell-based; settings: MCF7, 48 h
[4] = tested on: MCF7; experiment: Cytotoxicity against human MCF7 cells assessed as cell viability at 250 uM after 48 hrs by MTT assay; format: cell-based; settings: mcf7, 48 h

pIC50 [1]	SMILES	viability at 48 h, up to 100 µM [2] [%]	pIC50 [3]	Activity [4]
5.33	FC(F)(F)c1ccccc1/C=N/n1c(S)nnc1-c1ccccc1	–	–	–
5.06	COc1ccc(OC)c(/C=N/n2c(S)nnc2-c2ccccc2)c1	–	–	–
–	Cc1ncc([N+](=O)[O-])n1CCO [METRONIDAZOLE]	> 70	< 3.60	Non-toxic
4.99	Oc1ccc(/C=N/n2c(-c3ccccc3)n[nH]c2=S)cc1	–	–	–
6.49	COc1ccc(/C=N/n2c(S)nnc2-c2ccccc2)cc1	60	< 3.60	Non-toxic
5.57	COc1cc(/C=N/n2c(S)nnc2-c2ccccc2)cc(OC)c1OC	–	–	–
5.77	O=[N+]([O-])c1ccc(/C=N/NC(=S)N2CCCCCCC2)s1	–	–	–
4.97	Nn1c(S)nnc1-c1ccccc1	–	–	–
5.52	COc1cc(/C=N/n2c(-c3ccccc3)n[nH]c2=S)ccc1O	–	–	–
6.08	Cc1nnc2n(NC(=S)NC34CC5CC(CC(C5)C3)C4)c(C)nnc1-2	–	–	–
5.86	Cc1ccc(/C=N/n2c(S)nnc2-c2ccccc2)cc1	65	< 3.60	Non-toxic
6.55	O=[N+]([O-])c1ccc(/C=N/n2c(S)nnc2-c2ccccc2)cc1	60	< 3.60	Non-toxic
6.00	S=C(N1CCC(Cc2ccccc2)CC1)N1CCC(c2cccc(Cl)c2)=N1	–	–	–
5.02	S=c1[nH]nc(-c2ccccc2)n1/N=C/c1ccc(Cl)cc1	–	–	–
6.51	CN(C)c1ccc(/C=N/n2c(S)nnc2-c2ccccc2)cc1	65	< 3.60	Non-toxic

SMILES	pIC50 [1]	viability at 48 h, up to 100 µM [2] [%]	pIC50 [3]	Activity [4]
NNC(N)=S [THIOSEMICARBAZIDE]	5.64	–	–	–
